# Experimental data published in PubChem BioAssay (NCI).
#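 Grown in 96-well plates, cells were treated for 48 hours with each compound at five concentrations. Insufficient inhibition: endpoint recorded as highest concentration tested. GI50 = concentration required for 50% inhibition of growth. TGI denotes the concentration required for complete inhibition of growth.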
# How the values were obtained:
# Test in all cases: NCI anticancer screen, dose series, 48 h
# CAKI-1 renal = system: CAKI-1 renal
# HL-60(TB) leukemia = system: HL-60(TB) leukemia
# SF-539 CNS = system: SF-539 CNS
# SNB-19 CNS = system: SNB-19 CNS
# SW-620 colon = system: SW-620 colon
# U251 CNS = system: U251 CNS
# UO-31 renal = system: UO-31 renal
# MDA-MB-231 breast = system: MDA-MB-231 breast
# MDA-MB-435 = system: MDA-MB-435
# T-47D breast = system: T-47D breast
SMILES,TGI (CAKI-1 renal) [µM],TGI (HL-60(TB) leukemia) [µM],TGI (SF-539 CNS) [µM],TGI (SNB-19 CNS) [µM],TGI (SW-620 colon) [µM],TGI (U251 CNS) [µM],TGI (UO-31 renal) [µM],TGI (MDA-MB-231 breast) [µM],TGI (MDA-MB-435) [µM],TGI (T-47D breast) [µM],GI50 (CAKI-1 renal) [µM],GI50 (HL-60(TB) leukemia) [µM],GI50 (SF-539 CNS) [µM],GI50 (SNB-19 CNS) [µM],GI50 (T-47D breast) [µM],GI50 (U251 CNS) [µM],GI50 (UO-31 renal) [µM],GI50 (MDA-MB-231 breast) [µM],GI50 (MDA-MB-435) [µM],GI50 (SW-620 colon) [µM]
CC(=O)NC1=C(C)C(=O)c2c(nc3n2CCC3O)C1=O (stereo not drawn),> 100,44.2,51.3,> 100,> 100,> 100,> 100,,,,,,,,,,,,,
CC1(C)[C@@H](Cn2cnc3c(=O)[nH]c(N)nc32)CC[C@@]1(C)CO,> 100,,> 100,> 100,> 100,> 100,> 100,> 100,> 100,> 100,,,,,,,,,,
CCNC(=O)/C=C/CCC#Cc1ccc(-c2ccc(-c3cccs3)s2)s1,> 100,> 100,> 100,> 100,> 100,> 100,> 100,,,,,,,,,,,,,
Oc1ccc2c(c1)CC[N+]1=C2CCC2CCCC21 (stereo not drawn),> 100,,> 100,> 100,> 100,,> 100,,,,,,,,,,,,,
CCOC(=O)c1c2c(n3ccc(NC(=O)OC(C)(C)C)cc13)C(=O)c1ncccc1C2=O,1.58,0.38,0.549,1.36,,1.25,0.397,,,5.31,0.0389,0.0256,0.118,0.159,0.382,0.0465,0.0153,,,
CCOC(=O)C(=O)C1C(=O)Nc2ccccc21 (stereo not drawn),> 100,> 100,,> 100,> 100,> 100,> 100,,,,,,,,,,,,,
C=C(CC(=O)Nc1ccc(C(=O)OC)o1)C(=O)OC,41.9,,36.1,> 100,53.5,> 100,39.5,58.2,59,54.8,,,,,,,,,,
O=c1[nH]c2ccccc2nc1/C=C(\O)C(F)F,> 100,> 100,> 100,> 100,> 100,> 100,> 100,> 100,> 100,,,,,,,,,,,
CC(=NCCN(CCN=C(C)c1c(O)cc(C)oc1=O)CCN=C(C)c1c(O)cc(C)oc1=O)c1c(O)cc(C)oc1=O,,> 100,> 100,> 100,> 100,> 100,> 100,> 100,> 100,> 100,,,,,,,,,,
CCOC(=O)/C(C#N)=C/c1ccc(CO)o1,> 100,,> 100,> 100,> 100,> 100,,> 100,> 100,> 100,,,,,,,,,,
Nc1ccccc1NC(=O)CCCCCCC(=O)Nc1ccc2c(c1)/C(=C/c1ccc[nH]1)C(=O)N2,,> 100,> 100,> 100,> 100,> 100,> 100,> 100,> 100,> 100,,1.8,1.32,> 100,3.67,1.08,2.21,> 100,14.7,40.8
NS(=O)(=O)c1ccc(Nc2c3ccccc3nc3c(C(=O)NCCCN(CCO)CCO)cccc23)cc1,> 100,,,45.7,52.7,31.7,> 100,> 100,37.2,44.2,,,,,,,,,,
COc1ccc(Oc2nc3ccc(C(F)(F)F)cc3nc2-c2ccccc2)cc1,> 100,> 100,,> 100,> 100,> 100,> 100,> 100,> 100,,,,,,,,,,,
[N-]=[N+]=NC1CC(n2cc(COCC(F)(F)F)c(=O)[nH]c2=O)OC1CO (stereo not drawn),> 100,> 100,> 100,> 100,> 100,> 100,> 100,,,,,,,,,,,,,
CN1C/C(=C\c2ccc(Cl)cc2)C(=O)/C(=C/c2ccc(Cl)cc2)C1,> 27.6,,1.8,> 100,> 100,2.46,,8.08,> 100,> 100,,,,,,,,,,
C[C@@H]1C[C@]2(C[C@@H](C)[C@H]3C(C[C@@]4(C)CCC[C@@H]5C6=C[C@H](CCC34C)OC6=CC(=O)OC5(C)C)O2)OC1=O (stereo partly drawn),> 51.5,> 51.5,> 51.5,> 51.5,> 51.5,> 51.5,> 51.5,,,,,,,,,,,,,
Cc1cc2ccccc2n1CC(=O)N1CCCC1,,> 100,> 100,> 100,> 100,> 100,> 100,> 100,> 100,> 100,,,,,,,,,,
